# In patent US9452977B2, “Cyclopentylacrylamide derivative” (KYORIN PHARMACEUTICAL CO., LTD., priority 2008, dated 2016):
# Target: T1, human hepatic GK (Homo sapiens, UniProt P35557)
# T1 construct: His6 (C); made in house; host or cells: E. coli
# T1 sequence (P35557 1-466 isoform P35557-2): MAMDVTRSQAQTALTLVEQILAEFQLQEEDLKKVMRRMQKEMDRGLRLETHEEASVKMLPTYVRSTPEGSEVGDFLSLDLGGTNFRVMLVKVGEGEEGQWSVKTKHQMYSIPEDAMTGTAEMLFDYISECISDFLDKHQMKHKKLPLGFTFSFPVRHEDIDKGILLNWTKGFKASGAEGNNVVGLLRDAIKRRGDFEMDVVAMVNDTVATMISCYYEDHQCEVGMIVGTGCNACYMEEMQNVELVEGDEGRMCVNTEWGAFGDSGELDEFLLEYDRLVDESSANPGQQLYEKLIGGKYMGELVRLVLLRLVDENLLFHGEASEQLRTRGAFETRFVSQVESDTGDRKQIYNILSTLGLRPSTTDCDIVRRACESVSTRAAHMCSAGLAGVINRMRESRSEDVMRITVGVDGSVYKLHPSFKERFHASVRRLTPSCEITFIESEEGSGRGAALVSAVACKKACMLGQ
# Experiment: GK activity measurement (G6PDH-coupled NADH production)
# Format: biochemical
# Details: GK activation; 5 mM D-glucose
# Experimental: The GK activity was determined not by direct measurement of the amount of glucose-6-phosphate produced by the enzyme reaction but by measurement of the amount of NADH produced by a […] reaction.
# (Preparation of Recombinant GK)
# Cloning of Human Hepatic GK and Human Pancreas GK and Acquisition of Recombinant Proteins
# Based on a human hepatic GK sequence available from GeneBank (Accession Number: NM_033507) and a human pancreas GK sequence (Accession Number: NM_000162), PCR cloning was performed using Pyrobest DNA Polymerase (product of Takara Bio Inc.) with human hepatic cDNA (product of Clontech Laboratories, Inc.) and human pancreas cDNA (product of Clontech Laboratories, Inc.) used as templates. […]
# The test compound was dissolved in DMSO in advance, and 2 μL of the prepared solution was added to 20 μL of a solution containing the HEPES buffer solution (pH 7.1), KCl, MgCl2, D-glucose, ATP, NAD, and dithiothreitol. […] The GK was added such that an increase in absorbance per minute in the presence of 5% DMSO was between 0.002 to 0.003. After the reaction was initiated, the increase in absorbance at 340 nm was measured for 15 minutes using a SPECTRAmax 190 microplate spectrophotometer (product of Molecular Devices Corporation), and the activity was evaluated using the increase in the first 10 minutes.
smiles,measurement,value
"CS(=O)(=O)c1ccc(/C(=C\[C@H]2C[C@@H](F)[C@@H](F)C2)C(=O)Nc2nccs2)cc1 [Compound 1A, (E)-3-[(1α,3α,4α)-3,4-difluorocyclopentyl]-2-[4-(methylsulfonyl)phenyl]-N-(thiazol-2-yl)acrylamide]",EC50,≤ 1000 nM
